Results published in US20180110784A1, “SYNTHETIC TLR4 AND TLR7 LIGANDS TO PREVENT, INHIBIT OR TREAT LIVER DISEASE” (The Regents of the University of California, priority 2015, published 2018).
Read-outs that look alike come from different tables or passages of the source.

Key:
Format in all cases: cell-based
TLR9 signaling = test: CpG-DNA-induced TLR9 signaling-mediated inflammatory response in isolated Kupffer cells; conditions: R848 0.5 μM for 16 hours, then CpG-DNA 5 μg/mL for 4 hours
Description: It was examined whether 1Z1 (FIG. 7) inhibits TLR9 signaling, which promotes liver diseases, including non-alcoholic steatohepatitis (NASH) and alcoholic liver disease (ALD). Isolated Kupffer cells were treated with 1Z1 (5 μM) or R848 (0.5 μM) for 16 hours followed by stimulation with CpG-DNA (TLR9 ligand; 5 μg/mL) for 4 hours and inflammatory cytokine expression was then measured. Pretreatment with […], 1Z1, and R848 inhibited production of IL-6, TNFα, IL-1β, CCL5, CXCL1, and CXCL2 in Kupffer cells following CpG-DNA treatment (FIG. 18).

TLR4 [1] = target: T1, TLR4 (Mus musculus, UniProt Q9JHF9+Q9QUK6); test: TLR4 activity, mouse
T1 sequence (Q9QUK6 26-835): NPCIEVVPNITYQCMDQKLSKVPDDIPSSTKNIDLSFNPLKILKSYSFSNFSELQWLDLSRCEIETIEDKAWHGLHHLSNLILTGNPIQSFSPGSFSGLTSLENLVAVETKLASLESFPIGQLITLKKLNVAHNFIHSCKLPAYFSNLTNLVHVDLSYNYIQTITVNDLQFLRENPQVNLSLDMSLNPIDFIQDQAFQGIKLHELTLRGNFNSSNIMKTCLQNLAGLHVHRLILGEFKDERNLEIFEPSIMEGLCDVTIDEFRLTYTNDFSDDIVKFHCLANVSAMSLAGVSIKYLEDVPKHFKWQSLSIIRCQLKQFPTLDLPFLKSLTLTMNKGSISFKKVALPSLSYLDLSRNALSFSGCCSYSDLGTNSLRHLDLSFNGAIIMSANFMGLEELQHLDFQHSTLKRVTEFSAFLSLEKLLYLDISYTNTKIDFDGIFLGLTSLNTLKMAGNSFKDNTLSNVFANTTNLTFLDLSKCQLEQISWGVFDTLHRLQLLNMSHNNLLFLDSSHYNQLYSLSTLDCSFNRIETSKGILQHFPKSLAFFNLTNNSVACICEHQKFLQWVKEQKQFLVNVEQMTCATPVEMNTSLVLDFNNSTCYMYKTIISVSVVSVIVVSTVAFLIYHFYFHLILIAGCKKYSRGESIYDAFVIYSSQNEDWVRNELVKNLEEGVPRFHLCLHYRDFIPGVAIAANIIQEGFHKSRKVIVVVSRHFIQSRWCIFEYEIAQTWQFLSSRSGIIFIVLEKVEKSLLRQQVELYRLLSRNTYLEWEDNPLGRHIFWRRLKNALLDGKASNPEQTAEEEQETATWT
T1 sequence (Q9JHF9 19-160): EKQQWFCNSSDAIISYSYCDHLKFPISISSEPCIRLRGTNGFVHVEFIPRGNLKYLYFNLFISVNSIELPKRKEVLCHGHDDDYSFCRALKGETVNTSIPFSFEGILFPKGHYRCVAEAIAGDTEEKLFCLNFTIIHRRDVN

IL-8 = IL-8 activity of TLR4 ligands, human; design: unit not given here
IP-10 = IP-10 activity of TLR4 ligands, mouse
IL-6 = IL-6 activity of TLR4 ligands, mouse; design: unit not given here
TLR4 [2] = target: TLR4 (Homo sapiens, UniProt O00206+Q9Y6Y9); test: TLR4 activity, human
Sequence of TLR4 (Homo sapiens, UniProt O00206+Q9Y6Y9) (O00206 24-839): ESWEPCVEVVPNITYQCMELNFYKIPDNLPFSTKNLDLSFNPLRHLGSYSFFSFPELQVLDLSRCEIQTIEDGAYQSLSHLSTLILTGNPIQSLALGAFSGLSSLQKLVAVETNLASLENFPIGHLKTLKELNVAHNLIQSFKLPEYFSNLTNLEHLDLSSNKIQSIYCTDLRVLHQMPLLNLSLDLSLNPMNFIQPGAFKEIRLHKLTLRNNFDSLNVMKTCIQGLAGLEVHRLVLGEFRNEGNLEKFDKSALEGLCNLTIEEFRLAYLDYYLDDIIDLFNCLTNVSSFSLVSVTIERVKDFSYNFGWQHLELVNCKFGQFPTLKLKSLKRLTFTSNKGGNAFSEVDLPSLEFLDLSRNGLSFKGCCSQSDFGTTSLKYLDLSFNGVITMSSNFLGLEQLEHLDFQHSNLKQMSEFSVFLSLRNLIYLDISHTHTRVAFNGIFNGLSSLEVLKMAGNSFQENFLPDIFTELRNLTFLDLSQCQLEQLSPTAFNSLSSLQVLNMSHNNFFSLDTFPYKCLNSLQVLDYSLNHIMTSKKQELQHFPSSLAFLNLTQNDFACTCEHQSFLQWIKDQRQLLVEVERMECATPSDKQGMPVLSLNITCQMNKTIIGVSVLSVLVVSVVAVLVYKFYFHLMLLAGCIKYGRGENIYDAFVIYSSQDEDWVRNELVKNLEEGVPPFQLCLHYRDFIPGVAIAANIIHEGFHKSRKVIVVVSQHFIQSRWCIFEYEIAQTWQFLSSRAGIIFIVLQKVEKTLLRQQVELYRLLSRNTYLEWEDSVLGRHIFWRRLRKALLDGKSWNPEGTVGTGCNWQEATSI
Sequence of TLR4 (Homo sapiens, UniProt O00206+Q9Y6Y9) (Q9Y6Y9 17-160 limits assumed): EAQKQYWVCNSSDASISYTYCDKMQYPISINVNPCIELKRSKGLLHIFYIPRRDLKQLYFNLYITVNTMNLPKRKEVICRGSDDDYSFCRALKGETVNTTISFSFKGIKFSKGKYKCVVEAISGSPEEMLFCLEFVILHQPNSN

For `CCOCc1nc2c(N)nc3ccccc3c2n1CC(C)(C)O` [Compound R848], the “production of IL-6, TNFα, IL-1β, CCL5, CXCL1, and CXCL2 following CpG-DNA treatment” value (TLR9 signaling) was “inhibited”.
With `O=C(CSc1nc2c([nH]c3ccccc32)c(=O)n1-c1ccccc1)NC1CCNCC1` [Compound 34] the “mouse TLR4” value (TLR4 [1]; mouse) was <1, the “human IL-8” value (IL-8) was 17 and the “mouse IP-10” value (IP-10) was <1. The “mouse IL-6” value (IL-6) was <1 and the “human TLR4” value (TLR4 [2]; human) was <1.
`COC(=O)CCCn1c2ccccc2c2nc(SCC(=O)NC3CCCCC3)n(-c3ccccc3)c(=O)c21` [Compound 44] was tested, and the “mouse TLR4” value (TLR4 [1]; mouse) was 9, the “human IL-8” value (IL-8) was 124 and the “mouse IP-10” value (IP-10) was 19. For the same compound, the “mouse IL-6” value (IL-6) was 4 and the “human TLR4” value (TLR4 [2]; human) was 19.
`CCCCNC(=O)CSc1nc2c([nH]c3ccccc32)c(=O)n1-c1ccccc1` [Compound 23] was tested, and the “mouse TLR4” value (TLR4 [1]) was 31, the “human IL-8” value (IL-8) was 29 and the “mouse IP-10” value (IP-10) was 61. The “mouse IL-6” value (IL-6) was 49 and the “human TLR4” value (TLR4 [2]) was 32.
For `CN(C(=O)CSc1nc2c3ccccc3n(C)c2c(=O)n1-c1ccccc1)C1CCCCC1` [Compound 43], the “mouse TLR4” value (TLR4 [1]; mouse) was 1, the “human IL-8” value (IL-8) was 5 and the “mouse IP-10” value (IP-10) was <1. The “mouse IL-6” value (IL-6) was <1 and the “human TLR4” value (TLR4 [2]; human) was <1.
